According to US8580814B2, “Methods of using (+)-1,4-dihydro-7-[(3S,4S)-3-methoxy-4-(methylamino)-1-pyrrolidinyl]-4- oxo-1-(2-thiazolyl)-1,8-naphthyridine-3-carboxylic acid for treatment of cancer” (priority 2006, dated 2013):

Columns and labels:
[1] = Solubility in acidic compositions; type: physicochemical; settings: Acidic compositions (<pH 4)
Experimental: An illustrative example of a suitable composition comprises: 10 mg SNS-595 per mL of aqueous solution of 4.5% sorbitol that is adjusted to pH 2.5 with methanesulfonic acid. One protocol for making such a solution includes the following for making a 100 mg/10 mL presentation: 100 mg of SNS-595 and 450 mg D-sorbitol are added to distilled water; the volume is brought up to a volume of 10 mL; and the pH of the resulting solution is adjusted to 2.5 with methanesulfonic acid. The resulting composition is also suitable for lyophilization. The lyophilized form is then reconstituted with sterile water to the appropriate concentration prior to use.

[2] = test system: ATRFLOX (HCT-116 cells with 6 fold lower ATR levels); test: Timing of apoptosis (caspase-3 activation); type: cell-based; settings: Cell Line ATRFLOX; dosed at 30 fold above the EC50 for cytotoxicity
[3] = test system: H460 lung cancer cell line; test: Combination studies, MTT assay, Combination Index; type: cell-based; settings: SNS-595 dosed simultaneously with various cytotoxics, H460, Fa=0.5
Experimental: (§1) Cell lines and Cell Culture: HCT116 and NCI-H460 cell lines were obtained from ATCC. SKOV3(p53−/−) and SKOV3(p53+/+) were obtained from the lab of Dr. George Stark of the Lerner Institute of the Cleveland Clinic. All cell lines were cultured in RPMI media supplemented with 10% FBS 1% Sodium Bicarbonate solution and 1% Antibiotic Solution (Cellgro).
(§2) MTT assay: Cells were plated at 4000 cells per well (except SKOV3 (p53−/−) which were plated at 8000 cells per well) in a 96 well plate, incubated for 24 hours and then treated with compound. Compound treatment lasted 72 hours. Cells were then incubated with 5% MTT for 1-2 hours, and lysed. MTT was colorimetrically read at 570 nm. The fraction of dead cells was determined by the following formula: Fraction of Dead cells=1−[Abs of sample well−Avg(Abs of no cell control)]/[Avg(Abs of DMSO only control)−Avg(abs of no cell control)]
(§3) Statistical Analysis: The data (Fraction of Dead cells) was analyzed using Calculsyn.V2 (Biosoft) and is herein represented as the value of the Combination Index at Fraction affected (Fa)=0.5. All data is shown with error bars indicating the 95% confidence intervals of the mean value.
(§4) A combination is said to be additive if it yields a Combination Index of 0.85-1.2. […]

[4] = test system: SKOV3 ovarian cancer cell line with or without p53 expression; test: Combination studies, MTT assay, Combination Index; type: cell-based; settings: SNS-595 dosed simultaneously with a selection of DNA damaging agents and antimetabolites
Experimental: as §1, §2, §3, §4

[5] = test system: M059J (DNAPKcs(−/−)) cells; test: Repair of DNA damage (gH2AX foci) in the absence of DNA-PK; type: cell-based; set-up: dose or concentration left out as unconfirmed; settings: M059J vs M059K (wt), washout, 16 hours recovery
Experimental: (§5) Compound was then removed and cells were allowed to recover for 16 hours. Cells were analyzed for gH2AX foci before and after drug washout.

[6] = test system: HCT-116 cells with 6 fold lower ATR levels; test: MTT assay, sensitization (ATRFLOX); type: cell-based; settings: compound 72 hours
Experimental: (§6) Cells were then incubated with 5% MTT for 1-2 hours and lysed. MTT was colorimetrically read at 570 nm and EC50's were determined using linear regression analysis.
(§7) Sensitization was carried out with various chemical treatments.

HCT116 cells = test: High content screening and microscopy, nuclear foci (gH2AX, pATM); type: cell-based; settings: HCT116 cells dosed for 6 hour
Experimental: Cells were plated as sub-confluent populations and allowed to grow for 36 hours. Cells were then treated with the compound at the given concentration for the given time period. Cells were fixed using 4% formaldehyde and permeabilized with 0.1% triton. Cells were exposed to primary antibodies for 1 hour at 25° C. at a 1:100 dilution in 10% FBS/PBS (anti-pATM—Chemicon, anti-gH2AX-Cell Signaling Technology). Cells were exposed to secondary antibodies for 1 hour at 25° C. at a 1:100 dilution in 10% FBS/PBS. Hoechst staining was carried out in 10% FBS/PBS at 500 ng/ml concentrations. High content screening was carried out on a Cellomics Arrayscan instrument using the Spot Detector algorithm. […] Cells were then fixed and analyzed for protein phosphorylation state (gH2AX images obtained using a fluorescence microscope, pATM images obtained with the ArrayScan VTi).

HCT-116 = test: Timing of apoptosis (caspase-3 activation); type: cell-based; settings: Cell Line HCT-116; dosed at 30 fold above the EC50 for cytotoxicity
[7] = test system: MO59J (DNAPKcs(−/−)) vs MO59K (DNAPKCs(+/+)); test: MTT assay, sensitization (DNAPKcs(−/−)); type: cell-based
Experimental: as §6, §7

[8] = Safety in patients with advanced or refractory acute leukemias; type: in vivo, human
Experimental: SNS-595 was administered to patients with advanced or refractory acute leukemias as a slow IV push. Diagnoses included AML (19 patients) and ALL (2 patients). All patients had disease refractory to or relapsed from prior therapy (median 3 prior regimens (range 1-6)). A total of 21 patients (9 female and 12 male; median age=64 yrs, range 21-80) were treated in five cohorts using two schedules. In the first schedule (A), a weekly dose of SNS-595 was administered for three weeks followed by 7 days off (qwk×3). In the second schedule (B), a dose of SNS-595 was administered twice a week for two weeks (biwk×2). The cycle duration, including days off, was 28 days for both schedules. […] Additional cycles were permitted if patients achieved stable disease or better. The starting dose was 18 mg/m^2 on schedule A and 9 mg/m^2 on schedule B, and dosage was escalated by cohort. Cohorts of 3-6 patients were accrued to doses using a modified Fibonacci sequence.

p73 null cells = test: SNS-595 sensitivity in p73 null vs p73 containing cells; type: cell-based; settings: p73 null cells as compared to p73 containing cells
HCT-116 cells = test: Repair of DNA damage (gH2AX foci) in the absence of ATM and ATR; type: cell-based; settings: for 6 h with 2 mM caffeine, washout, 16 hours recovery
Experimental: as §5

SMILES: CN[C@H]1CN(c2ccc3c(=O)c(C(=O)O)cn(-c4nccs4)c3n2)C[C@@H]1OC [SNS-595, (+)-1,4-dihydro-7-[(3S,4S)-3-methoxy-4-(methylamino)-1-pyrrolidinyl]-4-oxo-1-(2-thiazolyl)-1,8-naphthyridine-3-carboxylic acid]
- solubility [1]: increased solubility
- Timing of apoptosis: fraction of cell cycle to achieve 50% maximal caspase-3 activation [2]: 0.35
- combination indices [3]: significantly synergistic or at least additive
- change in the combination index between SKOV3 with or without p53 expression [4]: no significant change
- repair of induced DNA damage (gH2AX foci) in the absence of DNA-PK [5]: not effectively repaired
- Sensitization, fold decrease in the EC50 for cytotoxicity (MTT): ATRFLOX [6]: 1 fold
- nuclear foci formation (gH2AX, pATM) (HCT116 cells): leads to nuclear foci formation
- Timing of apoptosis: fraction of cell cycle to achieve 50% maximal caspase-3 activation (HCT-116): 0.4
- sensitization, PIKK dependence ([7]; ATM/ATR or DNAPK activity inhibited or diminished): only when DNAPKcs activity is diminished
- Sensitization, fold decrease in the EC50 for cytotoxicity (MTT): DNAPKcs(−/−) ([7]; MO59J (DNAPKcs(−/−)) vs MO59K (DNAPKCs(+/+)), compound 72 hours): 10 fold
- Grade 4 neutropenic fever ([8]; acute leukemia patients): only one patient
- Non-dose limiting toxicities ([8]; acute leukemia patients): nausea/vomiting, diarrhea, and mucositis
- SAE possibly related to study drug: Infection, CTCAE v3.0 Grade ([8]; biwk x2, 1 patient): Grade 3
- SAE possibly related to study drug: Neutropenic Fevers, CTCAE v3.0 Grade ([8]; biwk x2, 1 patient): Grade 4
- SAE possibly related to study drug: Infection with Neutropenia, CTCAE v3.0 Grade ([8]; qwk x3, 1 patient): Grade 3
- SAE possibly related to study drug: Pneumonia with Neutropenia, CTCAE v3.0 Grade ([8]; qwk x3, 1 patient): Grade 3
- dose limiting toxicities (DLTs) ([8]; up to 13.5 mg/m^2 on the biwk×2 schedule): No dose limiting toxicities
- dose limiting toxicities (DLTs) ([8]; up to 27 mg/m^2 on the qwk×3 schedule): No dose limiting toxicities
- decrease in SNS-595 sensitivity (p73 null cells): more than 11 fold
- repair of induced DNA damage (gH2AX foci) in the absence of ATM and ATR (HCT-116 cells): readily repaired
